Structures are written as SMILES.

The data set in a line: gradient 5% acetonitrile 3 min, to 50% in 2 min, to 85% in 15 min, held 3 min, 100 µL/min. As to conditions: column: Zorbax Extend-C18 2.1 x 50 mm; eluents: water / acetonitrile, 0.1% formic acid. Put shortly: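 Retention times come from adduct peaks that were picked computationally and then checked by hand. The standards, pure and pooled in mixtures of ~100 molecules, were run on a Zorbax Extend-C18 column (2.1 × 50 mm, 1.8 μm) at 100 μL/min with water and acetonitrile, each with 0.1% formic acid. Detection was by quadrupole time-of-flight mass spectrometry in positive and negative ionization mode, with a dead volume of 40 μL and a dwell volume of 900 μL.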
`CC(C)NC(=O)Cn1cnc2nc(N3CCC(C(=O)NC4CC4)CC3)sc2c1=O` gave an RP-LC retention time of 1060 s. As to `COc1ccc2c(c1)c(CN1CCOCCNC(=O)CC1)cn2C`, the RP-LC retention time worked out at 598 s. On to `O=C(CN1C(=O)NC(c2ccc(Cl)cc2)C2=C1COC2=O)Nc1ccc(C(F)(F)F)cc1` (stereo not drawn), for which the RP-LC retention time was determined as 895 s. In the case of `CCn1nnc2c(N3CCc4cc(OC)c(OC)cc4C3C)ncnc21` (stereo not drawn), the RP-LC retention time amounted to 784 s. In the case of `COc1cccc(C2=NC3(CCN(C(=O)c4ccc5c(c4)OCO5)CC3)NC2=O)c1`, the RP-LC retention time is 712 s. The value for `CCOC(=O)C1CCN(C(=O)C2CN(C(=O)c3ccc(F)c(F)c3)C2)CC1` was 696 s. As for `O=C(Cn1nc2c3ccc(Cl)cc3ncn2c1=O)Nc1ccc(F)cc1`, the figure is 744 s.

`Cc1ccc(NC(=O)C2CC(=O)N(c3n[nH]c4cccc(F)c34)C2)cc1C` (stereo not drawn) returned an RP-LC retention time of 831 s.

Compound `O=C(Nc1ccc2nncn2c1)c1ccc(Cl)cc1` had an RP-LC retention time of 719 s. Regarding `CCCc1ccc(S(=O)(=O)N2CCC(F)(c3nc(CC(C)C)no3)CC2)cc1`, the RP-LC retention time is 1330 s. In the case of `CCCN(C)c1nccnc1OC1CCN(C(=O)C(CC)CC)C1` (stereo not drawn), the RP-LC retention time worked out at 842 s.

`CC(C)N1CCCn2cc(S(=O)(=O)Nc3cccc(C(F)(F)F)c3)cc2C1=O`: the RP-LC retention time is 865 s. `CC1(C)COCN1S(=O)(=O)c1ccc(C(=O)Nc2nnc(-c3cccs3)o2)cc1` registered an RP-LC retention time of 750 s. Compound `CCN1C(=O)c2cc(S(=O)(=O)Nc3cc(F)cc(F)c3)ccc2Oc2cccnc21` returned an RP-LC retention time of 1040 s. Turning to `O=C(NCc1cccc(Br)c1)C1CCCN(c2nccnc2Oc2ccccc2)C1` (stereo not drawn), the RP-LC retention time worked out at 1050 s. The value for `CCCNc1cc(N2CCC(CCC(=O)N(C)CCC)CC2)ncn1` was 589 s; that for `Cc1ccccc1C(=O)NCc1ccc2c(c1)ncn2C(C)C` was 598 s. `CC(C)CN1CCN(C(=O)c2ccc3[nH]c4c(c3c2)CN(C(=O)C2CCC2)CC4)CC1`: the RP-LC retention time stood at 621 s.

Turning to `COc1ccc2nc(NC(=O)CCCN3C(=O)C4C5C=CC(C5)C4C3=O)sc2c1` (stereo not drawn), the RP-LC retention time turned out to be 817 s. Consider `CCOC(=O)C1CCN(S(=O)(=O)c2cc(-c3nnc(-c4ccccc4)o3)ccc2OC)CC1`, for which the RP-LC retention time was 976 s. As for `O=C(NC(C(=O)N1CCCc2ccccc21)c1ccccc1)c1cnccn1` (stereo not drawn), the figure is 932 s; as for `CC1=C(C(=O)N2CCOCC2)C(c2cc(Br)ccc2F)C2=C(CC(C)(C)CC2=O)N1` (stereo not drawn), 715 s. As for `CCc1ccccc1NC(=O)Nc1cccc(-c2ccc(N3CCOCC3)nn2)c1`, the RP-LC retention time turned out to be 717 s.

`CN1CCN(CCCNC(=O)CN2C(=O)C3CCCCN3c3ccc(C(=O)N4CCCC4)cc32)CC1` (stereo not drawn) had an RP-LC retention time of 579 s.

Consider `Cc1ccc(Cn2c(CN3CCC(C(=O)N4CCOCC4)CC3)cc3ccccc32)cc1`, for which the RP-LC retention time was 717 s. The value for `O=C(NCCc1ccncc1)c1ccc2c(c1)ncn2-c1ccccc1` was 550 s; that for `Cc1ccc(-c2nnc(C)c(NCc3cccs3)n2)cc1` was 700 s. Take `COC(=O)c1ccc(C(=O)N(Cc2ccccn2)Cc2ccco2)cc1`: the RP-LC retention time was 650 s. As for `NC(=O)c1c([N+](=O)[O-])cc(C(F)(F)F)cc1[N+](=O)[O-]`, the RP-LC retention time was found to be 702 s. `O=C(NC1CC1)c1ccccc1OCC1CCN(C(=O)C2CCCO2)CC1` (stereo not drawn) yielded an RP-LC retention time of 685 s. The value for `COc1cc(OC)c(NC(=O)N2CCCC(Cn3cnc4cccnc43)C2)cc1Cl` (stereo not drawn) was 703 s; that for `Cc1cnc(-c2ccncc2)n1CC1CN(Cc2cccn2C)C1` was 692 s. Regarding `O=C(NCC1CCCO1)c1cnn2c(-c3ccc4c(c3)OCO4)ccnc12` (stereo not drawn), the RP-LC retention time amounted to 780 s.
